From patent publication US20150218172A1, “Pyrrolo[2,3-D]Pyrimidine Tropomyosin-Related Kinase Inhibitors” (PFIZER LIMITED, priority 2012, published 2015) come the findings set out here.

The target in this assay is T1, TrkA (Homo sapiens, UniProt P04629).
T1 construct: aa 441-796; His; purchased Invitrogen PV3144
As to the kind of experiment: Isolated TRK enzyme assay (HTRF KinEASE-TK kit), PV3144 TrkA enzyme assay. The class given is biochemical. As to conditions: PV3144 TrkA enzyme assay, recombinant His-tagged cytoplasmic domain aa 441-796, 4 nM enzyme, 40 uM ATP; arithmetic mean where more than one reading; read-out: Trka enzyme (IC50). In outline: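 Recombinant His-tagged cytoplasmic domain of human TrkA, preactivated with ATP for 20 min, then 20 min with compound before biotinylated TK substrate (1 uM final) at room temperature. HTRF read at 665/620 nm; % inhibition normalised to reference-compound and DMSO controls, IC50 from sigmoid fit, mean of replicates.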

The IC50 is the concentration needed to halve the response being measured.

T1 sequence (P04629 441-796): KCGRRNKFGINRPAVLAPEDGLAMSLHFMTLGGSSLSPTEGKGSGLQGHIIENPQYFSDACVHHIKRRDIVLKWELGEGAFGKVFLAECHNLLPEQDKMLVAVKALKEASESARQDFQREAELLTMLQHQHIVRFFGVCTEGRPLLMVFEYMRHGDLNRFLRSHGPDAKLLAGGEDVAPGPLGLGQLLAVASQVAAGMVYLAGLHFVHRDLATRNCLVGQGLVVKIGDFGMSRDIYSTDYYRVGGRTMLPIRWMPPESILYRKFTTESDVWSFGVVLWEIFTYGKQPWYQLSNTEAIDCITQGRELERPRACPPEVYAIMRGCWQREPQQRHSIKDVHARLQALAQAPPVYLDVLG

Consider `CC(C)n1cc(C(=O)c2cc(NC(=O)Cn3cc(C4CC4)nn3)ccn2)c2cncnc21` [Example 82, 2-(4-cyclopropyl-1H-1,2,3-triazol-1-yl)-N-(2-{[7-(propan-2-yl)-7H-pyrrolo[2,3-d]pyrimidin-5-yl]carbonyl}pyridin-4-yl)acetamide], for which the IC50 was 76.1 nM.
For `CC(C)n1cc(C(=O)c2ccnc(NC(=O)Cc3ccc(C(F)(F)F)c(F)c3)c2)c2cncnc21` [Example 124, 2-[3-fluoro-4-(trifluoromethyl)phenyl]-N-(4-{[7-(propan-2-yl)-7H-pyrrolo[2,3-d]pyrimidin-5-yl]carbonyl}pyridin-2-yl)acetamide], the IC50 stood at 15.1 nM.
On to `Cc1ccnn1CC(=O)Nc1cc(C(=O)c2cn(CCO)c3ncncc23)ccn1` [Example 130, N-(4-{[7-(2-hydroxyethyl)-7H-pyrrolo[2,3-d]pyrimidin-5-yl]carbonyl}pyridin-2-yl)-2-(5-methyl-1H-pyrazol-1-yl)acetamide], for which the IC50 was 1750 nM.
Turning to `CC(C)n1cc(C(=O)c2ccnc(NC(=O)Cc3ccc(Cl)cc3)c2)c2cncnc21` [Example 150, 2-(4-chlorophenyl)-N-(4-{[7-(propan-2-yl)-7H-pyrrolo[2,3-d]pyrimidin-5-yl]carbonyl}pyridin-2-yl)acetamide], the IC50 was 85.3 nM.
`CC1(n2cc(C(=O)c3cc(NC(=O)Cc4ccc(C(F)(F)F)cc4)ccn3)c3cncnc32)COC1` [Example 167, N-(2-{[7-(3-methyloxetan-3-yl)-7H-pyrrolo[2,3-d]pyrimidin-5-yl]carbonyl}pyridin-4-yl)-2-[4-(trifluoromethyl)phenyl]acetamide]: the IC50 stood at 72.9 nM.
Regarding `CC(C)n1cc(C(=O)c2ccnc(NC(=O)Cc3ccc(Cl)cc3)c2)c2cncnc21` [Example 67, 2-(4-chlorophenyl)-N-(4-{[7-(propan-2-yl)-7H-pyrrolo[2,3-d]pyrimidin-5-yl]carbonyl}pyridin-2-yl)acetamide], the IC50 came to 28.9 nM.
For the compound `CC(C)n1cc(C(=O)c2ccnc(NC(=O)Cc3ccc(Cl)cc3Cl)c2)c2cncnc21` [Example 157, 2-(2,4-dichlorophenyl)-N-(4-{[7-(propan-2-yl)-7H-pyrrolo[2,3-d]pyrimidin-5-yl]carbonyl}pyridin-2-yl)acetamide], the IC50 turned out to be 15.6 nM.
For `CC(C)n1cc(C(=O)c2ccnc(NC(=O)Cc3ccc(Cl)c(Cl)c3)c2)c2cncnc21` [Example 66, 2-(3,4-Dichlorophenyl)-N-{4-[(7-isopropyl-7H-pyrrolo[2,3-d]pyrimidin-5-yl)carbonyl]pyridin-2-yl}acetamide], the IC50 came to 4.45 nM.
Regarding `Cc1cc(C)n(CC(=O)Nc2cc(C(=O)c3cn(C(CO)CO)c4ncncc34)ccn2)n1` [Example 112, 2-(3,5-Dimethyl-1H-pyrazol-1-yl)-N-[4-({7-[2-hydroxy-1-(hydroxymethyl)ethyl]-7H-pyrrolo[2,3-d]pyrimidin-5-yl}carbonyl)pyridin-2-yl]acetamide], the IC50 came out at 682 nM.
Regarding `CC(C)n1cc(C(=O)c2cc(NC(=O)Cc3cccc(S(C)(=O)=O)c3)ccn2)c2cncnc21` [Example 81, 2-[3-(methylsulfonyl)phenyl]-N-(2-{[7-(propan-2-yl)-7H-pyrrolo[2,3-d]pyrimidin-5-yl]carbonyl}pyridin-4-yl)acetamide], the IC50 is 268 nM.
Take `CC1(n2cc(C(=O)c3cc(NC(=O)Cn4cc(C(F)(F)F)nn4)ccn3)c3cncnc32)COC1` [Example 171, N-(2-{[7-(3-methyloxetan-3-yl)-7H-pyrrolo[2,3-d]pyrimidin-5-yl]carbonyl}pyridin-4-yl)-2-[4-(trifluoromethyl)-1H-1,2,3-triazol-1-yl]acetamide]: the IC50 came out at 255 nM.
Take `N#Cc1ccc(CC(=O)Nc2cc(C(=O)c3cn([C@H]4CC[C@@H](O)CC4)c4ncncc34)ccn2)cc1` [Example 5, 2-(4-cyanophenyl)-N-(4-{[7-(cis-4-hydroxycyclohexyl)-7H-pyrrolo[2,3-d]pyrimidin-5-yl]carbonyl}pyridin-2-yl)acetamide]: the half-maximal inhibitory concentration (IC50) turned out to be 75.6 nM.
Under `CC(C)(CO)n1cc(C(=O)c2cc(NC(=O)Cc3ccc(C#N)cc3)ccn2)c2cncnc21` [Example 57, 2-(4-cyanophenyl)-N-(2-{[7-(1-hydroxy-2-methylpropan-2-yl)-7H-pyrrolo[2,3-d]pyrimidin-5-yl]carbonyl}pyridin-4-yl)acetamide] stands 66.1 nM; under `C[C@H](CO)n1cc(C(=O)c2cc(NC(=O)Cc3cccc(C(F)(F)F)c3)ccn2)c2cncnc21` [Example 19, N-[2-({7-[(2R)-1-hydroxypropan-2-yl]-7H-pyrrolo[2,3-d]pyrimidin-5-yl}carbonyl)pyridin-4-yl]-2-[3-(trifluoromethyl)phenyl]acetamide], 97.6 nM; under `CC(C)n1cc(C(=O)c2ccnc(NC(=O)Cn3cccn3)c2)c2cncnc21` [Example 158, N-(4-{[7-(propan-2-yl)-7H-pyrrolo[2,3-d]pyrimidin-5-yl]carbonyl}pyridin-2-yl)-2-(1H-pyrazol-1-yl)acetamide], 1350 nM.
Turning to `CC(C)n1cc(C(=O)c2cc(NC(=O)Cc3ccc(Cl)cc3)ccn2)c2cncnc21` [Example 47, 2-(4-Chloro-phenyl)-N-[2-(7-isopropyl-7H-pyrrolo[2,3-d]pyrimidine-5-carbonyl)-pyridin-4-yl]-acetamide], the IC50 was 5.71 nM.
For the compound `CC(CO)(CO)n1cc(C(=O)c2cc(NC(=O)Cc3ccc(Cl)cn3)ccn2)c2cncnc21` [Example 106, 2-(5-chloropyridin-2-yl)-N-(2-{[7-(1,3-dihydroxy-2-methylpropan-2-yl)-7H-pyrrolo[2,3-d]pyrimidin-5-yl]carbonyl}pyridin-4-yl)acetamide], the IC50 is 663 nM.
Take `CC(C)n1cc(C(=O)c2ccnc(NC(=O)Cc3ccc(C#N)cc3)c2)c2cncnc21` [Example 68, 2-(4-cyanophenyl)-N-(4-{[7-(propan-2-yl)-7H-pyrrolo[2,3-d]pyrimidin-5-yl]carbonyl}pyridin-2-yl)acetamide]: the IC50 worked out at 51 nM.
Under `Cc1cc(C(F)(F)F)nn1CC(=O)Nc1ccnc(C(=O)c2cn([C@@H](C)CO)c3ncncc23)c1` [Example 20, N-[2-({7-[(2S)-1-hydroxypropan-2-yl]-7H-pyrrolo[2,3-d]pyrimidin-5-yl}carbonyl)pyridin-4-yl]-2-[5-methyl-3-(trifluoromethyl)-1H-pyrazol-1-yl]acetamide] stands 120 nM; under `CC(C)(CO)n1cc(C(=O)c2cc(NC(=O)Cc3cccc(C(F)(F)F)c3)ccn2)c2cnc(N)nc21` [Example 49, N-(2-{[2-amino-7-(1-hydroxy-2-methylpropan-2-yl)-7H-pyrrolo[2,3-d]pyrimidin-5-yl]carbonyl}pyridin-4-yl)-2-[3-(trifluoromethyl)phenyl]acetamide], 9.7 nM; under `O=C(Cc1cccc(OC(F)(F)F)c1)Nc1ccnc(C(=O)c2cn(C(CO)CO)c3ncncc23)c1` [Example 97, N-(2-{[7-(1,3-dihydroxypropan-2-yl)-7H-pyrrolo[2,3-d]pyrimidin-5-yl]carbonyl}pyridin-4-yl)-2-[3-(trifluoromethoxy)phenyl]acetamide], 876 nM.
For `C[C@H](CO)n1cc(C(=O)c2cc(NC(=O)Cc3ccc(Cl)cn3)ccn2)c2cncnc21` [Example 25, 2-(5-chloropyridin-2-yl)-N-[2-({7-[(2R)-1-hydroxypropan-2-yl]-7H-pyrrolo[2,3-d]pyrimidin-5-yl}carbonyl)pyridin-4-yl]acetamide], the IC50 was found to be 363 nM.
